Measurements reported in EP4752139A1, “BRANCHED MULTI-HYDROXYL-PROTECTING OLIGOMER, LINKED BODY BONDED THEREWITH, AND BRANCHED MULTI-HYDROXYL OLIGOMER OBTAINED BY DEPROTECTING SAID LINKED BODY” (Tomoike Bio Ltd., priority 2023, dated 2025).

Assay: Evaluation of water solubility of deprotected pterostilbene linked bodies
Format: physicochemical
Details: ion-exchanged water; solubility threshold could not be measured because the compound was extremely water-soluble
Protocol: The deprotected pterostilbene linked body obtained in Examples were evaluated for water solubility using the following method. In FIGs 1 and 2, the numbers in the ellipses for each compound represent a level of water solubility as a molar ratio, with the water solubility of F1 (pterostilbene) (21 mg (0.0819 mmol) dissolved in 1 liter) being set at 1.0. The water solubility of F1 (pterostilbene) was determined using the value described in Sarah J. Bethune et al., Cryst. Growth Des. 2011, 11, 2817-2823. The water solubility of F1 glycoside (pterostilbene monoglycoside) was determined using the value described in Jose L. Gonzalez-Alfonso et al., Molecules 2018, 23, 1271.
Into a round-bottom flask was weighed 1.0 g of the compound and 100 mL of ion-exchanged water in sequence and the mixture was heated with a heat gun for about 1 minute, taking care not to boil the mixture, and then cooled to room temperature and allowed to stand. After 24 hours, the residue was removed by filtration, and the filtrate was concentrated under reduced pressure. A water solubility of each compound was calculated from the weight of the compound recovered from the filtrate.
In a round-bottom flask, a solution was prepared the amounts of the compound and ion-exchanged water shown in Figure 1, and a water solubility of the compound was calculated. Because the compound was extremely water-soluble, a water solubility threshold could not be measured. However, compared to the hardly water-soluble F1, its water solubility was 2×10^4 times or more, that is, extremely higher.

Row | SMILES | water solubility compared to the hardly water-soluble F1
1 | COc1cc(/C=C/c2ccc(OCC(COCC(O)CO)(COCC(O)CO)COCC(O)CO)cc2)cc(OC)c1 (stereo not drawn) [H139, (E)-3,3'-((2-((2,3-dihydroxypropoxy)methyl)-2-((4-(3,5-dimethoxystyryl)phenoxy)methyl)propane-1,3-diyl)bis(oxy))bis(propane-1,2-diol)] | ≥ 2×10^4 times
2 | COc1cc(/C=C/c2ccc(OCC(CO)(CO)COCC(COCC(CO)(CO)CO)(COCC(CO)(CO)CO)COCC(CO)(CO)CO)cc2)cc(OC)c1 [J119, (E)-2,2'-(((2-((3-(4-(3,5-dimethoxystyryl)phenoxy)-2,2-bis(hydroxymethyl)propoxy)methyl)-2-((3-hydroxy-2,2-bis(hydroxymethyl)propoxy)methyl)propane-1,3-diyl)bis(oxy))bis(methylene))bis(2-(hydroxymethyl)propane-1,3-diol)] | ≥ 2×10^4 times
3 | COc1cc(/C=C/c2ccc(OCC(COC(CO)CO)(COC(CO)CO)COC(CO)CO)cc2)cc(OC)c1 [H129, (E)-2,2'-((2-(((1,3-dihydroxypropan-2-yl)oxy)methyl)-2-((4-(3,5-dimethoxystyryl)phenoxy)methyl)propane-1,3-diyl)bis(oxy))bis(propane-1,3-diol)] | ≥ 2×10^4 times
4 | COc1cc(/C=C/c2ccc(OCC(CO)(CO)COC(COC(CO)CO)COC(CO)CO)cc2)cc(OC)c1 [J229, (E)-2,2'-((2-(3-(4-(3,5-dimethoxystyryl)phenoxy)-2,2-bis(hydroxymethyl)propoxy)propane-1,3-diyl)bis(oxy))bis(propane-1,3-diol)] | ≥ 2×10^4 times
5 | COc1cc(/C=C/c2ccc(OCC(CO)(CO)COCC(COC(CO)CO)(COC(CO)CO)COC(CO)CO)cc2)cc(OC)c1 [J129, (E)-2,2'-((2-(((1,3-dihydroxypropan-2-yl)oxy)methyl)-2-((3-(4-(3,5-dimethoxystyryl)phenoxy)-2,2-bis(hydroxymethyl)propoxy)methyl)propane-1,3-diyl)bis(oxy))bis(propane-1,3-diol)] | ≥ 2×10^4 times
6 | COc1cc(/C=C/c2ccc(OCC(CO)(CO)COCC(COCC(O)CO)(COCC(O)CO)COCC(O)CO)cc2)cc(OC)c1 (stereo not drawn) [J139, (E)-3,3'-((2-((2,3-dihydroxypropoxy)methyl)-2-((3-(4-(3,5-dimethoxystyryl)phenoxy)-2,2-bis(hydroxymethyl)propoxy)methyl)propane-1,3-diyl)bis(oxy))bis(propane-1,2-diol)] | ≥ 2×10^4 times
7 | COc1cc(/C=C/c2ccc(OCC(CO)(CO)COC(COCC(O)CO)COCC(O)CO)cc2)cc(OC)c1 (stereo not drawn) [J239, (E)-3,3'-((2-(3-(4-(3,5-dimethoxystyryl)phenoxy)-2,2-bis(hydroxymethyl)propoxy)propane-1,3-diyl)bis(oxy))bis(propane-1,2-diol)] | ≥ 2×10^4 times
8 | COc1cc(/C=C/c2ccc(OCC(CO)(CO)COC(COCC(CO)(CO)CO)COCC(CO)(CO)CO)cc2)cc(OC)c1 [J219, (E)-2,2'-(((2-(3-(4-(3,5-dimethoxystyryl)phenoxy)-2,2-bis(hydroxymethyl)propoxy)propane-1,3-diyl)bis(oxy))bis(methylene))bis(2-(hydroxymethyl)propane-1,3-diol)] | ≥ 2×10^4 times

Same assay, conditions: water solubility of F1 (pterostilbene) set at 1.0 (reference)

Row | SMILES | level of water solubility as a molar ratio
9 | COc1cc(/C=C/c2ccc(O)cc2)cc(OC)c1 [F1, (E)-4-(3,5-dimethoxystyryl)phenol, reference compound] | 1.0
